# Earlier results, collected in patent US11185565B2, “Compositions including milk thistle and methods of use” (GM Pharmaceuticals, Inc., priority 2019, dated 2021).
# Legend:
# [1] = deficiency in PQQ, mammals
# [2] = additional chromium in drinking water; obese and insulin resistant mammals
# [3] = addition of chromium to carbohydrate-rich meals
SMILES,decrease in metabolic rate [1],glucose disposal rates and insulin-stimulated signaling in skeletal muscles [2],reduction in blood sugar after the carbohydrate-rich meals [3]
"O=C(O)c1cc(C(=O)O)c2c(n1)C(=O)C(=O)c1cc(C(=O)O)[nH]c1-2.[Na].[Na] [PQQ, pyrroloquinoline quinone disodium]",~10%,–,–
[Cr] [chromium],–,significantly improved,> 20%
